Source: PubChem BioAssay (NCI)
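All cell lines were grown in 96-well plates and treated with compound for 48 hours. At the GI50, growth is halved. TGI denotes the concentration required for complete inhibition of growth.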

What was measured:
Assay in all cases: DTP human tumour cell line panel, 48 h
CCRF-CEM leukemia = tested on: CCRF-CEM leukemia
HCT-15 colon = tested on: HCT-15 colon
HT29 colon = tested on: HT29 colon
NCI-H226 lung = tested on: NCI-H226 lung
NCI-H23 lung = tested on: NCI-H23 lung
OVCAR-5 ovarian = tested on: OVCAR-5 ovarian
SR leukemia = tested on: SR leukemia
TK-10 renal = tested on: TK-10 renal
UACC-257 melanoma = tested on: UACC-257 melanoma
HCC-2998 colon = tested on: HCC-2998 colon

Compound | GI50 (CCRF-CEM leukemia) [µM] | TGI (CCRF-CEM leukemia) [µM] | GI50 (HCT-15 colon) [µM] | TGI (HCT-15 colon) [µM] | GI50 (HT29 colon) [µM] | TGI (HT29 colon) [µM] | GI50 (NCI-H226 lung) [µM] | TGI (NCI-H226 lung) [µM] | GI50 (NCI-H23 lung) [µM] | TGI (NCI-H23 lung) [µM] | GI50 (OVCAR-5 ovarian) [µM] | TGI (OVCAR-5 ovarian) [µM] | GI50 (SR leukemia) [µM] | TGI (SR leukemia) [µM] | GI50 (TK-10 renal) [µM] | TGI (TK-10 renal) [µM] | GI50 (UACC-257 melanoma) [µM] | TGI (UACC-257 melanoma) [µM] | GI50 (HCC-2998 colon) [µM] | TGI (HCC-2998 colon) [µM]
COc1ccc2cc(-c3cc4c(oc3=O)-c3ccccc3OC4O)c(=O)oc2c1 (stereo unspecified) | 19.7 | 64.7 | 15.8 | 32 | 17.1 | 31.5 | 16.1 | 34 | 17.7 | 33.4 | 17.3 | 31.3 | 79.7 | > 100 | 19.9 | 37 | 16.2 | 32.3 | – | –
O=C(/C(=C\c1ccc([N+](=O)[O-])cc1)S(=O)Cc1ccc(F)cc1)c1ccc(F)cc1 (stereo unspecified) | 1.48 | 6.75 | 1.64 | 4.43 | – | – | 4.32 | 21.9 | 1.91 | 4.1 | 1.83 | 3.67 | – | – | 2.31 | 7 | 1.79 | 3.73 | 1.69 | 3.22
O=CNc1ncn[nH]1 | – | > 100 | – | > 100 | – | > 100 | – | > 100 | – | > 100 | – | > 100 | – | > 100 | – | > 100 | – | > 100 | – | –
NC(N)=N/N=C/c1c(-c2cc(Cl)sc2Cl)nc2sccn12 | 0.807 | 1.68 | 1.01 | 2.87 | – | – | 7.89 | 18.9 | 7.5 | 14.9 | 0.956 | 2.05 | 1.35 | 2.68 | 1.29 | 2.78 | 8.6 | 17.6 | 0.854 | 1.56
C/C(=C\CCc1ccoc1)CC/C=C(\C)CCCN1CCOCC1 | 2.79 | 11 | 2.98 | 11.8 | – | – | 10.5 | 30.7 | 6.03 | 21 | 7.17 | 21.3 | 3.12 | 9.69 | 11 | 23.8 | 9.17 | 21.2 | 10.9 | 23.8
CC(/C(=N\Nc1ccccc1)c1ccc(O)cc1)C1C(=O)Oc2ccccc21 (stereo unspecified) | – | > 100 | – | > 100 | – | > 100 | – | – | – | – | – | – | – | > 100 | – | > 100 | – | > 100 | – | > 100
O=C(CN(/C=C/C(=O)C(F)(F)F)c1ccc(Cl)cc1)c1ccccc1 | 8.8 | 33.5 | 15.1 | 38.7 | 25.8 | > 100 | – | – | 8.75 | 27.2 | 15.6 | 40.7 | 14.8 | 57 | 7.88 | 37.2 | 14.5 | 34.9 | 7.93 | 21.1
COc1c(C(=O)c2ccc([N+](=O)[O-])cc2)cc(C(C)(C)C)cc1C(C)(C)C | – | 97.5 | – | > 100 | – | 88 | – | – | – | > 100 | – | > 100 | – | 64.1 | – | > 100 | – | 59.3 | – | 66.9
Cc1ccc2ncnc(N(CC(C)C)CC(C)C)c2c1 | 6.55 | 41.7 | 17.9 | 34.6 | – | – | 15.2 | 34.8 | 11.1 | 28.5 | 20.1 | 43.7 | 7.76 | 26.3 | 19.4 | 37.5 | – | – | 16.2 | 35.7
COC(=O)C(CC(C)C)NC(=O)NC12CC3CC(CC(F)(C3)C1)C2 (stereo unspecified) | – | > 100 | – | – | – | > 100 | – | – | – | > 100 | – | > 100 | – | – | – | > 100 | – | > 100 | – | > 100
Cc1ccc(-c2cc3c(SCC(=O)Nc4cc(C(F)(F)F)ccc4Cl)nccn3n2)cc1 | – | – | > 100 | > 100 | – | – | > 100 | > 100 | > 100 | > 100 | > 100 | > 100 | > 100 | > 100 | > 100 | > 100 | – | – | > 100 | > 100
O=C(c1ccccc1)[C@H]1Nc2ccc(Cl)cc2C2c3ccccc3CC21 (stereo partly specified) | – | – | – | > 100 | – | > 100 | – | > 100 | – | > 100 | – | > 100 | – | > 100 | – | > 100 | – | 85.9 | – | 83.4
COC(=O)C(Cc1cc(OC)c(OC)c(OC)c1)c1ccc(OC)cc1 (stereo unspecified) | – | > 100 | – | > 100 | – | > 100 | – | > 100 | – | – | – | > 100 | – | – | – | > 100 | – | > 100 | – | –
COc1cc2nc(SCC(=O)Nc3cc(OC)c(OC)c(OC)c3)n(Cc3ccccc3)c(=O)c2cc1OC | > 100 | > 100 | > 100 | > 100 | 16.6 | 38.7 | – | – | 4.17 | 50.3 | > 100 | > 100 | 40.9 | > 100 | 4.06 | 21.5 | 3.55 | > 100 | 50.6 | > 100
COc1ccc2c(c1)[n+](=O)c(C(=O)c1ccco1)c(C(F)(F)F)n2[O-] | – | – | 1.16 | 4.6 | 4.59 | > 100 | 3.04 | 17.6 | 2.02 | 5.05 | 3.51 | 22.3 | 0.346 | > 100 | 8.56 | 60.4 | 1.44 | 4.83 | – | –
O=C1c2ccccc2S(=O)(=O)N1CSC(=S)N1CCCCC1 | – | – | > 100 | > 100 | > 29.2 | > 100 | > 100 | > 100 | > 100 | > 100 | > 100 | > 100 | 0.266 | > 100 | > 100 | > 100 | > 100 | > 100 | > 100 | > 100
O=C1c2ccccc2C(=O)N1CCN(CCN1C(=O)c2ccccc2C1=O)Cn1cccn1 | – | > 100 | – | > 100 | – | – | – | – | – | – | – | – | – | – | – | > 100 | – | > 100 | – | > 100
CC(=O)c1ccc(OCC(O)CO)cc1 (stereo unspecified) | – | > 100 | – | > 100 | – | > 100 | – | > 100 | – | > 100 | – | > 100 | – | – | – | > 100 | – | > 100 | – | > 100
Cc1cc2c(cc1C)[n+](=O)c(C(=O)C/C(=N/OCCCc1ccccc1)C(=O)Nc1cc(Cl)ccc1Cl)c(C)n2[O-] | – | > 100 | – | > 100 | – | > 100 | – | > 100 | – | > 100 | – | > 100 | – | – | – | > 100 | – | > 100 | – | > 100
Nc1nc2c(s1)CCc1c-2c(Br)n(Cc2ccccc2)c1Br | 0.534 | 11.9 | 3.98 | 15.9 | 10.9 | 27.7 | – | – | 13.8 | 40.8 | 19.8 | 39.3 | 3.41 | > 100 | 4.41 | 14.9 | 12.1 | 25.6 | 18 | 33.7
CN(C)c1ccc(N=C2C=CC(=[N+](C)C)C=C2)cc1 | – | – | 23.5 | > 100 | 3.74 | 22.9 | 17 | > 100 | 3.52 | 29.4 | 20.4 | 76.6 | – | – | 9.24 | 53.4 | 7.12 | 24.8 | 9.03 | 65.8
O=C1NC(=O)C(=C/C=C/c2ccccc2)C(=O)N1 | 3.57 | > 100 | 2.2 | 7.06 | – | – | 2.81 | 7.25 | 2.16 | 5.29 | 5.33 | 23 | 0.716 | > 100 | 5.62 | 18.3 | 2.24 | 7.34 | 2.2 | 4.1
CC1COc2c(N3CCN(C)CC3)c(F)cc3c(=O)c(C(=O)O)cn1c23 (stereo unspecified) | > 100 | > 100 | > 100 | > 100 | > 100 | > 100 | 93.1 | > 100 | > 100 | > 100 | 84.4 | > 100 | – | – | > 100 | > 100 | > 100 | > 100 | – | –
NNC(=O)CNC(=O)c1ccc(Cl)cc1Cl | – | > 100 | – | > 100 | – | > 100 | – | > 100 | – | > 100 | – | > 100 | – | – | – | > 100 | – | > 100 | – | > 100
N#Cc1c2c(c(N=P(c3ccccc3)(c3ccccc3)c3ccccc3)n3c1nc1ccccc13)CCCC2 | – | 57.7 | – | > 100 | – | 74.9 | – | 22.4 | – | – | – | – | – | – | – | – | – | 57.8 | – | > 100
CC1SC2=NC3=C(c4ccccc4C3=O)C(c3ccc(Cl)cc3)N2C1=O (stereo unspecified) | – | > 100 | – | > 100 | – | > 100 | – | > 100 | – | > 100 | – | > 100 | – | – | – | > 100 | – | > 100 | – | > 100
CNC(=O)OCc1c2ccncc2c(C)c2c1[nH]c1ccccc12 | – | – | – | 1.76 | – | 1.59 | – | 1.25 | – | 0.822 | – | 1.78 | – | – | – | 0.968 | – | 2.05 | – | 1.08
